{"source": "patent US10266513B2", "about": "(Pfizer Inc., priority 2012, dated 2019)", "data": [{"biological_target": "human full-length BTK Kinase (Homo sapiens (Human), UniProt Q06187)", "sequence (Q06187 whole entry)": "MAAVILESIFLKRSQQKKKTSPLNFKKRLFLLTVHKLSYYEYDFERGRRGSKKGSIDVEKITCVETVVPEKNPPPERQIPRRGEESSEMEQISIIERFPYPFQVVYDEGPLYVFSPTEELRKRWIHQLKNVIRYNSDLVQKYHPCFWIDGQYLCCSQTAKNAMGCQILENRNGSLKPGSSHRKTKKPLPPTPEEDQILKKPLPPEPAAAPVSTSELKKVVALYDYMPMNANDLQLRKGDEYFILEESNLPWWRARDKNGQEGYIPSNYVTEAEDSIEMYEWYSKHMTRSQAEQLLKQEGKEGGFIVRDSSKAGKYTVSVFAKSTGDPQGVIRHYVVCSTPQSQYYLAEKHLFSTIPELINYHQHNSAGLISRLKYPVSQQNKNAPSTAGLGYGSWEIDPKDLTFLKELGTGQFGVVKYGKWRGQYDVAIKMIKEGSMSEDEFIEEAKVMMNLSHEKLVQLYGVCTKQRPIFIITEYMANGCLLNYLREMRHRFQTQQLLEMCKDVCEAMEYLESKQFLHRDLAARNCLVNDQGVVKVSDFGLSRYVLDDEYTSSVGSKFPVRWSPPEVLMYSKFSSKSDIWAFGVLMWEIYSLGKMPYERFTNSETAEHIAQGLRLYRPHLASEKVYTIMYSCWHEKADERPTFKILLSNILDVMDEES", "assay": "Human BTK LanthaScreen Assay (TR-FRET)", "type": "biochemical", "settings": "50 μM ATP, FAM-Srctide peptide substrate, read-out: BTK Inhibition IC50", "text": "Human BTK LanthaScreen Assay", "units": {"IC50": "nM"}, "values": [{"smiles": "C[C@H]1CC[C@@H](n2nc(-c3ccc(Oc4ccc(F)cc4F)cc3)c(C(N)=O)c2N)CN1C#N", "note": "(relative stereo) [Example 121, 5-amino-1-[(3R*,6S*)-1-cyano-6-methylpiperidin-3-yl]-3-[4-(2,4-difluorophenoxy)phenyl]-1H-pyrazole-4-carboxamide]", "IC50": 9.9}, {"smiles": "N#CN1CCCC(n2nc(-c3ccc(Oc4ccccc4)cc3)c(C(N)=O)c2N)C1", "note": "(single isomer, unassigned) [Example 3]", "IC50": 3.3}, {"smiles": "N#CN1CCCC(n2nc(-c3ccc(Oc4ccc(Cl)cc4)cc3)c(C(N)=O)c2N)C1", "note": "(single isomer, unassigned) [Example 14]", "IC50": 12.5}, {"smiles": "Cc1ccc(Oc2ccc(-c3nn(C4CCCN(C#N)C4)c(N)c3C(N)=O)cc2)cc1C", "note": "(single isomer, unassigned) [Example 17]", "IC50": 0.4}, {"smiles": "Cc1ccc(Oc2ccc(-c3nn(C4CCCN(C#N)C4)c(N)c3C(N)=O)cc2)cc1C", "note": "(single isomer, unassigned) [Example 18]", "IC50": 3}, {"smiles": "N#CN1CCCC(n2nc(-c3ccc(Oc4ccc(F)cc4F)cc3)c(C(N)=O)c2N)C1", "note": "(single isomer, unassigned) [Example 26]", "IC50": 17.3}, {"smiles": "Cc1cc(F)ccc1Oc1ccc(-c2nn(C3CCCN(C#N)C3)c(N)c2C(N)=O)cc1", "note": "(single isomer, unassigned) [Example 33]", "IC50": 24.1}, {"smiles": "Cc1cc(F)ccc1Oc1ccc(-c2nn(C3CCCN(C#N)C3)c(N)c2C(N)=O)cc1", "note": "(single isomer, unassigned) [Example 34]", "IC50": 3.8}, {"smiles": "N#CN1CCCC(n2nc(-c3ccc(Oc4ccc(F)cc4Cl)cc3)c(C(N)=O)c2N)C1", "note": "(single isomer, unassigned) [Example 36]", "IC50": 25.3}, {"smiles": "N#CN1CCCC(n2nc(-c3ccc(Oc4ccc(F)cc4Cl)cc3)c(C(N)=O)c2N)C1", "note": "(single isomer, unassigned) [Example 37]", "IC50": 0.79}, {"smiles": "N#CN1CCC[C@@H](n2nc(-c3ccc(Cc4ccccc4F)cc3)c(C(N)=O)c2N)C1", "note": "(single isomer, unassigned) [Example 75]", "IC50": 0.81}, {"smiles": "N#CN1CCCC(n2nc(-c3ccc(Cc4cccc(F)c4)cc3)c(C(N)=O)c2N)C1", "note": "(single isomer, unassigned) [Example 78]", "IC50": 1.4}, {"smiles": "N#CN1CCCC(n2nc(-c3ccc(Cc4cccc(F)c4)cc3)c(C(N)=O)c2N)C1", "note": "(single isomer, unassigned) [Example 79]", "IC50": 31}, {"smiles": "N#CN1CCCC(n2nc(-c3ccc(Cc4ccc(F)cc4F)cc3)c(C(N)=O)c2N)C1", "note": "(single isomer, unassigned) [Example 81]", "IC50": 5.7}, {"smiles": "N#CN1CCCC(n2nc(-c3ccc(Cc4ccc(F)cc4F)cc3)c(C(N)=O)c2N)C1", "note": "(single isomer, unassigned) [Example 82]", "IC50": 126}, {"smiles": "N#CN1CCCC(n2nc(-c3ccc(Cc4ccc(F)c(F)c4)cc3)c(C(N)=O)c2N)C1", "note": "(single isomer, unassigned) [Example 84]", "IC50": 5.6}, {"smiles": "N#CN1CCCC(n2nc(-c3ccc(Cc4ccc(F)c(F)c4)cc3)c(C(N)=O)c2N)C1", "note": "(single isomer, unassigned) [Example 85]", "IC50": 212}, {"smiles": "N#CN1CCCC(n2nc(-c3cccc(Oc4ccccc4)c3)c(C(N)=O)c2N)C1", "note": "(single isomer, unassigned) [Example 90]", "IC50": 3.2}, {"smiles": "N#CN1CCCC(n2nc(-c3cccc(Oc4ccccc4)c3)c(C(N)=O)c2N)C1", "note": "(single isomer, unassigned) [Example 91]", "IC50": 154}, {"smiles": "N#CN1CCCC(n2nc(-c3ccc(Oc4ccc(Cl)cn4)cc3)c(C(N)=O)c2N)C1", "note": "(single isomer, unassigned) [Example 109]", "IC50": 128}, {"smiles": "Cc1ccc(Oc2ccc(-c3nn(C4CCCN(C#N)C4)c(N)c3C(N)=O)cc2)nc1", "note": "(single isomer, unassigned) [Example 113]", "IC50": 264}, {"smiles": "Cc1ccc(Oc2ccc(-c3nn(C4CCCN(C#N)C4)c(N)c3C(N)=O)cc2)nc1", "note": "(single isomer, unassigned) [Example 114]", "IC50": 10.1}, {"smiles": "N#CCN1CCCC(n2nc(-c3ccc(Oc4ccccc4)cc3)c(C(N)=O)c2N)C1", "note": "(stereo not drawn) [Example 4, 5-amino-1-[1-(cyanomethyl)piperidin-3-yl]-3-(4-phenoxyphenyl)-1H-pyrazole-4-carboxamide]", "IC50": 35}, {"smiles": "N#CN1CCC(n2nc(-c3ccc(Oc4ccccc4)cc3)c(C(N)=O)c2N)CC1", "note": "[Example 5, 5-amino-1-(1-cyanopiperidin-4-yl)-3-(4-phenoxyphenyl)-1H-pyrazole-4-carboxamide]", "IC50": 32.1}, {"smiles": "N#CN1CCC(n2nc(-c3ccc(Oc4ccccc4)cc3)c(C(N)=O)c2N)C1", "note": "(stereo not drawn) [Example 7, 5-amino-1-(1-cyanopyrrolidin-3-yl)-3-(4-phenoxyphenyl)-1H-pyrazole-4-carboxamide]", "IC50": 16.2}, {"smiles": "N#CCN1CCC(n2nc(-c3ccc(Oc4ccccc4)cc3)c(C(N)=O)c2N)C1", "note": "(stereo not drawn) [Example 8, 5-amino-1-[1-(cyanomethyl)pyrrolidin-3-yl]-3-(4-phenoxyphenyl)-1H-pyrazole-4-carboxamide]", "IC50": 16.5}, {"smiles": "N#CN1CC(n2nc(-c3ccc(Oc4ccccc4)cc3)c(C(N)=O)c2N)C1", "note": "[Example 9, 5-amino-1-(1-cyanoazetidin-3-yl)-3-(4-phenoxyphenyl)-1H-pyrazole-4-carboxamide]", "IC50": 23.3}, {"smiles": "N#CN1CCOCC(n2nc(-c3ccc(Oc4ccccc4)cc3)c(C(N)=O)c2N)C1", "note": "(stereo not drawn) [Example 10, 5-amino-1-(4-cyano-1,4-oxazepan-6-yl)-3-(4-phenoxyphenyl)-1H-pyrazole-4-carboxamide]", "IC50": 13.5}, {"smiles": "N#CN1CC2CC1CC2n1nc(-c2ccc(Oc3ccccc3)cc2)c(C(N)=O)c1N", "note": "(stereo not drawn) [Example 11, 5-amino-1-(2-cyano-2-azabicyclo[2.2.1]hept-5-yl)-3-(4-phenoxyphenyl)-1H-pyrazole-4-carboxamide]", "IC50": 5.9}, {"smiles": "N#CCN1CC2CC1CC2n1nc(-c2ccc(Oc3ccccc3)cc2)c(C(N)=O)c1N", "note": "(stereo not drawn) [Example 12, 5-amino-1-[2-(cyanomethyl)-2-azabicyclo[2.2.1]hept-5-yl]-3-(4-phenoxyphenyl)-1H-pyrazole-4-carboxamide]", "IC50": 54.2}, {"smiles": "N#CN1CCCC(n2nc(-c3ccc(Oc4ccc(Cl)cc4)cc3)c(C(N)=O)c2N)C1", "note": "(stereo not drawn) [Example 13, 5-amino-3-[4-(4-chlorophenoxy)phenyl]-1-(1-cyanopiperidin-3-yl)-1H-pyrazole-4-carboxamide]", "IC50": 2.6}, {"smiles": "Cc1ccc(Oc2ccc(-c3nn(C4CCCN(C#N)C4)c(N)c3C(N)=O)cc2)cc1C", "note": "(stereo not drawn) [Example 16, 5-amino-1-(1-cyanopiperidin-3-yl)-3-[4-(3,4-dimethylphenoxy)phenyl]-1H-pyrazole-4-carboxamide]", "IC50": 1.28}, {"smiles": "Cc1ccc(Oc2ccc(-c3nn(C4CCCN(C#N)C4)c(N)c3C(N)=O)cc2)c(C)c1", "note": "(stereo not drawn) [Example 23, 5-amino-1-(1-cyanopiperidin-3-yl)-3-[4-(2,4-dimethylphenoxy)phenyl]-1H-pyrazole-4-carboxamide]", "IC50": 9.2}, {"smiles": "CC(C)c1ccc(Oc2ccc(-c3nn(C4CCCN(C#N)C4)c(N)c3C(N)=O)cc2)cc1", "note": "(stereo not drawn) [Example 24, 5-amino-1-(1-cyanopiperidin-3-yl)-3-[4-(4-isopropylphenoxy)phenyl]-1H-pyrazole-4-carboxamide]", "IC50": 5}, {"smiles": "N#CN1CCCC(n2nc(-c3ccc(Oc4ccc(F)cc4F)cc3)c(C(N)=O)c2N)C1", "note": "(stereo not drawn) [Example 25, 5-amino-1-(1-cyanopiperidin-3-yl)-3-[4-(2,4-difluorophenoxy)phenyl]-1H-pyrazole-4-carboxamide]", "IC50": 2.18}, {"smiles": "Cc1cc(Oc2ccc(-c3nn(C4CCCN(C#N)C4)c(N)c3C(N)=O)cc2)ccc1F", "note": "(stereo not drawn) [Example 31, 5-amino-1-(1-cyanopiperidin-3-yl)-3-[4-(4-fluoro-3-methylphenoxy)phenyl]-1H-pyrazole-4-carboxamide]", "IC50": 2.8}, {"smiles": "Cc1cc(F)ccc1Oc1ccc(-c2nn(C3CCCN(C#N)C3)c(N)c2C(N)=O)cc1", "note": "(stereo not drawn) [Example 32, 5-amino-1-(1-cyanopiperidin-3-yl)-3-[4-(4-fluoro-2-methylphenoxy)phenyl]-1H-pyrazole-4-carboxamide]", "IC50": 4.1}, {"smiles": "N#CN1CCCC(n2nc(-c3ccc(Oc4ccc(F)cc4Cl)cc3)c(C(N)=O)c2N)C1", "note": "(stereo not drawn) [Example 35, 5-amino-3-[4-(2-chloro-4-fluorophenoxy)phenyl]-1-(1-cyanopiperidin-3-yl)-1H-pyrazole-4-carboxamide]", "IC50": 1.7}, {"smiles": "Cc1ccc(Oc2ccc(-c3nn(C4CCCN(C#N)C4)c(N)c3C(N)=O)cc2)c(Cl)c1", "note": "(stereo not drawn) [Example 38, 5-amino-3-[4-(2-chloro-4-methylphenoxy)phenyl]-1-(1-cyanopiperidin-3-yl)-1H-pyrazole-4-carboxamide]", "IC50": 2.5}, {"smiles": "Cc1ccc(Oc2ccc(-c3nn(C4CCCN(C#N)C4)c(N)c3C(N)=O)cc2)c(F)c1", "note": "(stereo not drawn) [Example 39, 5-amino-1-(1-cyanopiperidin-3-yl)-3-[4-(2-fluoro-4-methylphenoxy)phenyl]-1H-pyrazole-4-carboxamide]", "IC50": 1.1}, {"smiles": "Cc1cc(Oc2ccc(-c3nn(C4CCCN(C#N)C4)c(N)c3C(N)=O)cc2)ccc1Cl", "note": "(stereo not drawn) [Example 40, 5-amino-3-[4-(4-chloro-3-methylphenoxy)phenyl]-1-(1-cyanopiperidin-3-yl)-1H-pyrazole-4-carboxamide]", "IC50": 1.5}, {"smiles": "N#CN1CCCC(n2nc(-c3ccc(Oc4ccc(F)cc4)cc3)c(C(N)=O)c2N)C1", "note": "(stereo not drawn) [Example 41, 5-amino-1-(1-cyanopiperidin-3-yl)-3-[4-(4-fluorophenoxy)phenyl]-1H-pyrazole-4-carboxamide]", "IC50": 6.3}, {"smiles": "Cc1ccc(Oc2ccc(-c3nn(C4CCCN(C#N)C4)c(N)c3C(N)=O)cc2)cc1", "note": "(stereo not drawn) [Example 42, 5-amino-1-(1-cyanopiperidin-3-yl)-3-[4-(4-methylphenoxy)phenyl]-1H-pyrazole-4-carboxamide]", "IC50": 1.2}, {"smiles": "N#CN1CCCC(n2nc(-c3ccc(Oc4cc(F)ccc4F)cc3)c(C(N)=O)c2N)C1", "note": "(stereo not drawn) [Example 43, 5-amino-1-(1-cyanopiperidin-3-yl)-3-[4-(2,5-difluorophenoxy)phenyl]-1H-pyrazole-4-carboxamide]", "IC50": 0.77}, {"smiles": "CC(C)Oc1ccc(Oc2ccc(-c3nn(C4CCCN(C#N)C4)c(N)c3C(N)=O)cc2)cc1", "note": "(stereo not drawn) [Example 44, 5-amino-1-(1-cyanopiperidin-3-yl)-3-[4-(4-isopropoxyphenoxy)phenyl]-1H-pyrazole-4-carboxamide]", "IC50": 24.4}]}]}
